“And” between values parts separate entries of the source, which are not always exact repeats. Equal entries are not always repeated. Where two headings read alike, the source gives them in different places.
Columns and labels:
[1] = tested on: L. infantum-iRFP axenic amastigotes; test: Viability of L. infantum-iRFP axenic amastigotes (infrared fluorescence, 384-well); assay type: cell-based, Leishmania infantum; conditions: for EC50: Leishmania infantum, 72 h incubation, mean ± SD; for concentrations producing a decrease in fluorescence emission: axenic amastigotes, from 24 h until 72 h
[2] = tested on: intramacrophage L. infantum-iRFP amastigotes; test: Viability of L. infantum-iRFP intramacrophage amastigotes in infected murine splenocytes (infrared fluorescence, 384-well); assay type: cell-based, Leishmania infantum; conditions: for EC50: Leishmania infantum, Splenocyte, 72 h incubation, mean ± SD
[3] = tested on: L. infantum-iRFP axenic amastigotes; test: ROS production by axenic amastigotes (DCFH-DA, flow cytometry); assay type: cell-based, Leishmania infantum; conditions: 3 h treatment, 0.04 μM fexinidazole, 0.28 μM pretomanid (EC50)
[4] = molecular target: L. infantum TryR (Leishmania infantum, UniProt A4HSF7); test: Trypanothione reductase enzymatic assay in parasite protein extracts; assay type: biochemical; conditions: up to 100 μM (thioridazine at 100 μM); T[S]2 0.075 mM, NADPH 0.20 mM
L. infantum TryR, sequence (A4HSF7 entry or part of it): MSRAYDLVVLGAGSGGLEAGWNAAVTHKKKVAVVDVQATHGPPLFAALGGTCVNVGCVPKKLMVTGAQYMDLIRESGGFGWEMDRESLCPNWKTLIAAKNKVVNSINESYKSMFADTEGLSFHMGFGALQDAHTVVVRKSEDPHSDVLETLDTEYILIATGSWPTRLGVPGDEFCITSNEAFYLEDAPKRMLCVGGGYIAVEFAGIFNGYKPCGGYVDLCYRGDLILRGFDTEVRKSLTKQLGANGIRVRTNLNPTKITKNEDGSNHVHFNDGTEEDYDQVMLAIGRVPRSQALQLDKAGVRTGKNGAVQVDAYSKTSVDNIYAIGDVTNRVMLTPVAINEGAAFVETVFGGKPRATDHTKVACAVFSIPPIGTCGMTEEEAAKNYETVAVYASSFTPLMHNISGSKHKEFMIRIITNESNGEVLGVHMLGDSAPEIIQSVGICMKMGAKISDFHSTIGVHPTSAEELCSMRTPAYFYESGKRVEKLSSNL

[5] = tested on: intracellular amastigotes of L donovani; conditions: cited from earlier work
[6] = Cytotoxicity in HepG2 cells (alamarBlue); conditions: human
[7] = Cytotoxicity in RAW 264.7 cells (alamarBlue); conditions: mouse
[8] = CC50 HepG2 cells / EC50 axenic amastigotes
[9] = CC50 RAW 264.7 cells / EC50 axenic amastigotes
[10] = CC50 HepG2 cells / EC50 intramacrophage amastigotes
[11] = CC50 RAW 264.7 cells / EC50 intramacrophage amastigotes

SMILES: CSc1ccc(OCc2ncc([N+](=O)[O-])n2C)cc1 [Fexinidazole, 1-methyl-2-((p-(methylthio)-phenoxy)methyl)-5-nitroimidazole]
- SI1 (Selectivity Index) [1, 8]: >5000.00
- SI2 (Selectivity Index) [1, 9]: >5000.00
- EC50 [1]: 40 nM
- concentrations producing a decrease in fluorescence emission [1]: above 0.125 μM
- SI1 (Selectivity Index) [2, 10]: >151.52
- SI2 (Selectivity Index) [2, 11]: >151.52
- EC50 [2]: 1320 ± 60 nM
- percentage of the stressed population (+ROS) ([3]; 0.01% (v/v) H2O2): 58.4 ± 1.5% and 58.4%
- unstressed population (−ROS) ([3]; 0.01% (v/v) H2O2): 41.6%
- inhibitory effect on L. infantum TryR [4]: neither fexinidazole nor pretomanid had any inhibitory effect
- potency against intracellular amastigotes [5]: little activity
- CC50 at 72 h ([6]; HepG2 cells): > 200000 nM
- CC50 at 72 h ([7]; RAW 264.7 macrophage cells): > 200000 nM

SMILES: Cn1c([N+](=O)[O-])cnc1COc1ccc([S+](C)[O-])cc1 (stereo not drawn) [sulfoxide]
- potency against intracellular amastigotes [5]: potency similar to miltefosine

SMILES: Cn1c([N+](=O)[O-])cnc1COc1ccc(S(C)(=O)=O)cc1 [sulfone]
- potency against intracellular amastigotes [5]: potency similar to miltefosine

SMILES: O=[N+]([O-])c1cn2c(n1)OC[C@@H](OCc1ccc(OC(F)(F)F)cc1)C2 [Pretomanid]
- SI1 (Selectivity Index) [1, 8]: >714.29
- SI2 (Selectivity Index) [1, 9]: >714.29
- EC50 [1]: 280 ± 20 nM
- concentrations producing a decrease in fluorescence emission [1]: > 0.5 µM
- SI1 (Selectivity Index) [2, 10]: >303.03
- SI2 (Selectivity Index) [2, 11]: >303.03
- EC50 [2]: 660 ± 80 nM
- percentage of the stressed population (+ROS) ([3]; 0.01% (v/v) H2O2): 39.8%
- unstressed population (−ROS) ([3]; 0.01% (v/v) H2O2): 59.9%
- percentage of the stressed population (+ROS) ([3]; 0.01% (v/v) H2O2, listed as pretomanid): 39.8 ± 1.2%
- inhibitory effect on L. infantum TryR [4]: neither fexinidazole nor pretomanid had any inhibitory effect
- CC50 at 72 h [6]: > 200000 nM
- CC50 at 72 h [7]: > 200000 nM

SMILES: OO [H2O2]
- percentage of the stressed population (+ROS) ([3]; 0.01% (v/v) H2O2): 72.2%
- unstressed population (−ROS) ([3]; 0.01% (v/v) H2O2): 27.7%

SMILES: C[C@@H]1[C@H](O)[C@@H](C)/C=C/C=C/C=C/C=C/C=C/C=C/C=C/[C@H](O[C@@H]2O[C@H](C)[C@@H](O)[C@H](N)[C@@H]2O)C[C@@H]2O[C@](O)(C[C@@H](O)C[C@@H](O)[C@H](O)CC[C@@H](O)C[C@@H](O)CC(=O)O[C@H]1C)C[C@H](O)[C@H]2C(=O)O [Amp B]
- SI1 (Selectivity Index) [1]: 258.33
- SI2 (Selectivity Index) [1]: 24.82
- EC50 [1]: 270 ± 20 nM
- SI1 (Selectivity Index) [2]: 217.97
- SI2 (Selectivity Index) [2]: 20.94
- EC50 [2]: 320 ± 20 nM
- CC50 at 72 h ([6]; HepG2 cells): 69800 ± 13700 nM
- CC50 at 72 h ([7]; RAW 264.7 macrophage cells): 6700 ± 670 nM

SMILES: CSc1ccc2c(c1)N(CCC1CCCCN1C)c1ccccc1S2 (stereo not drawn) [thioridazine]
- inhibitory effect on L. infantum TryR [4]: completely inhibited the enzyme
